Reference: patent publication US20240132477A1, “Benzimidazole Derivatives and Their Use As Inhibitors of ITK For The Treatment of Skin Disease” (PFIZER INC., priority 2020, published 2024)

Legend:
[1] = tested on: IL-2 in supernatants from activated CD4+ human T-cells; experiment: IL-2 inhibition in supernatants from activated CD4+ human T-cells (cisbio HTRF); format: cell-based; conditions: T-cell; geometric mean of count n; activated CD4+ human T-cells, 20 to 24 hrs; read-out: IL-2 IC50
Description: IL-2-Inhibition Activity, IC50 (uM)
IL-2 inhibition activity in supernatants from activated CD4+ human T-cells was determined by measuring the effect of a test compound on the activity using the cisbio HTRF™ technology.
Human CD4+ T cells were activated with CD3/CD28 for 3 days and expanded for an additional 4-6 days (7 to 9 days total). On day 0, frozen CD4+ T cells were thawed, treated with CD3/CD28 Dynabeads, and incubated at 37° C./5% CO2. On day 3, the beads were removed, and the cells were diluted to 5×10^5 cells/cm^2, placed in G-Rex10 flask, and incubated at 37° C./5% CO2. On day 7 to day 9 the cells were removed from the G-Rex flasks, counted and diluted back to 1×10^6 cells/ml in standard tissue culture flask.
The expanded CD4+ T-cells were centrifuged at 300×g for 10 minutes and resuspended to 0.5 million cells per ml (30,000 cells/well). 60 μl of CD4+ T cells were added per well to a 384 well plate containing 0.1 μL of varying concentrations of test compound in DMSO. The plates were incubated for 15 min at 37° C./5% CO2. 20 μl of diluted ImmunoCult™ (STEMCELL Technologies, 1:12.5 in T cell assay media) were added to all wells of the plate (1:50 final assay concentration). The plates were incubated for an additional 20 to 24 hrs at 37° C./5% CO2. The plates were centrifuged at 300×g for 10 minutes. 16 μL of supernatant was removed and combined with 4 μl of IL-2 HTRF Abs. (cisbio kit). Plates were incubated for 3 hours at RT and read with an EnVision plate reader at 665 nm and 615 nm wavelengths. The concentrations and resulting effect values for the tested compound were plotted and the concentration of compound required for 50% effect (IC50) was determined with the four-parameter logistic dose response equation.

[2] = target: IL-2-Inducible T-Cell Kinase (ITK) (Homo sapiens (Human), UniProt Q08881); experiment: ITK enzyme assay; format: biochemical; conditions: geometric mean of count n; ITK FL enzyme, BTK peptide substrate
Sequence of IL-2-Inducible T-Cell Kinase (ITK) (Q08881 whole entry): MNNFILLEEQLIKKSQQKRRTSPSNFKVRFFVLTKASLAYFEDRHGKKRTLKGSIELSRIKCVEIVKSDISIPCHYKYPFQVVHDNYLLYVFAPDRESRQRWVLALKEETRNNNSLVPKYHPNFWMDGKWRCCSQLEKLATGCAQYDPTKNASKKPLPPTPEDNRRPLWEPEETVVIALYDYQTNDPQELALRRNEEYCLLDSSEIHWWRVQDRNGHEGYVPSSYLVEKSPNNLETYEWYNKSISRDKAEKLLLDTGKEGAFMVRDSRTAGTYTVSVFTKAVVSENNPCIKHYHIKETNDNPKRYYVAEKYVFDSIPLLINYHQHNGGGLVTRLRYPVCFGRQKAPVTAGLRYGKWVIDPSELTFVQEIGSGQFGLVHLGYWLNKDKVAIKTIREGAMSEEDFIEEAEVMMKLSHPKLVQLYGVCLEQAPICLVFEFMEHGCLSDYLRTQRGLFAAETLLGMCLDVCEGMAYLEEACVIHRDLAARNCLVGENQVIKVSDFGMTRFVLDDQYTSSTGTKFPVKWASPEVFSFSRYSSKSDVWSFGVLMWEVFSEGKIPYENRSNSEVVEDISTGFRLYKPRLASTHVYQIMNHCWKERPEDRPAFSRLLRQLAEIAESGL
Description: IL-2-Inducible T-Cell Kinase (ITK) Activity, IC50 (uM)
ITK activity was determined by measuring the effect of a test compound in an ITK enzyme assay.
1.0 M HEPES Buffer pH 7.5 solution was prepared as follows: 238.3 g HEPES free acid (Sigma) and 800 mL of water were combined, and the mixture was stirred until complete dissolution. The pH was adjusted to 7.5 via titration with 5N NaOH and the volume adjusted to 1000 mL. The solution was filtered and sterilized.
ITK assay buffer was prepared as follows: 50 mL of HPLC-grade water was treated with 2 mL of 1.0 M HEPES Buffer, 500 μL of 2% Gelatin (Sigma), 1.0 mL of aqueous MgCl2 solution (1.0 M), and 1.0 mL of aqueous glutathione solution (0.5 M), and the solution was mixed. The solution was brought to 99 mL in a graduated cylinder by addition of water and sterilized through a 0.2 μm filter. 0.1 mL of Brij-35™ Surfact-AmpS™ Detergent Solution (10% w/v aqueous solution, ThermoFisher) and 1.0 mL of ATP (Teknova, 100 mM) were added and the solution was mixed.
Preparation of 1.33×ITK enzyme solution was as follows: 49.99 mL of ITK assay buffer was treated with 4.1 μL of ITK enzyme (ITK FL (N-Flag and C-His tagged, ˜72 kDa) Lake Pharma, 0.25 mg/ml in a buffer containing 25 mM Tris pH 7.8, 150 mM NaCl, 10% glycerol and 2 mM TCEP) and the mixture was gently agitated. The resulting solution was stored on ice. 30 Minutes prior to use, the enzyme solution was removed from ice and equilibrated to RT by incubation in a RT water bath.
Preparation of 4×ITK substrate solution was as follows: 50 mL of ITK assay buffer was treated with 100 μL of BTK peptide (China Peptide Company, 2 mM stock solution in DMSO). The tube was capped, mixed by gently inverting the tube, and then stored on ice. 30 Minutes prior to use, the substrate solution was removed from ice and equilibrated to RT by incubation in a RT water bath.
At the time of assay, 7.5 μL of the 1.33×ITK enzyme solution was added to plate wells containing 0.1 μL of varying concentrations of test compound in DMSO. The plate was incubated 30 min at RT. The plate wells were each treated with 2.5 uL of the 4×ITK substrate solution and the plate was sealed (TopSeal™, Perkin Elmer). The plate was spun at 1000 rpm for 30 sec and then incubated for 60 min at RT. The seal was removed, and each well was treated with 10 μL of Stop/Detect Buffer (20 mM HEPES pH 7.5, 0.01% gelatin, 1 nM LANCE PT66 (Perkin Elmer), 16.5 μg/ml Surelight APC (Perkin Elmer), 10 mM EDTA, 250 mM NaCl). The plate was again covered and was spun at 1000 rpm for 30 seconds. The plate was allowed to incubate overnight at RT and in a closed carrier to reduce dehydration. The seal was removed, and the fluorescence was read with a plate reader with […]. The concentrations and resulting effect values for the tested compound were plotted and the concentration of compound required for 50% effect (IC50) was determined with the four-parameter logistic dose response equation.

Row | Compound | IC50 [1] | IC50 [2]
1 | Cc1cc2[nH]c(-c3n[nH]c4c3C[C@@H]3C[C@]3(C)C4)nc2cc1N(C)C(=O)C1(C)CC1 [Example 24, N,1-Dimethyl-N-(5-methyl-2-((4aS,5aR)-5a-methyl-1,4,4a,5,5a,6-hexahydrocyclopropa[f]indazol-3-yl)-1H-benzo[d]imidazol-6-yl)cyclopropane-1-carboxamide] | 259 nM | 37 nM
2 | CCCC(=O)N(C)c1cc2nc(-c3n[nH]c4c3C[C@@H]3C[C@]3(C)C4)[nH]c2cc1C [Example 26, N-Methyl-N-(6-methyl-2-((4aS,5aR)-5a-methyl-1,4,4a,5,5a,6-hexahydrocyclopropa[f]indazol-3-yl)-1H-benzo[d]imidazol-5-yl)butyramide] | 47 nM | 6 nM
3 | Cc1cc2[nH]c(-c3n[nH]c4c3C[C@@H]3C[C@]3(C)C4)nc2cc1N(C)C(=O)C(C)(C)F [Example 28, 2-Fluoro-N,2-dimethyl-N-(6-methyl-2-((4aS,5aR)-5a-methyl-1,4,4a,5,5a,6-hexahydrocyclopropa[f]indazol-3-yl)-1H-benzo[d]imidazol-5-yl)propenamide] | 57 nM | 7 nM
4 | CCC(=O)N(C)c1cc2nc(-c3n[nH]c4c3C[C@@H]3C[C@]3(C)C4)[nH]c2cc1C [Example 33, N-Methyl-N-(6-methyl-2-((4aS,5aR)-5a-methyl-1,4,4a,5,5a,6-hexahydrocyclopropa[f]indazol-3-yl)-1H-benzo[d]imidazol-5-yl)propionamide] | 53 nM | 5 nM
5 | Cc1cc2[nH]c(-c3n[nH]c4c3C[C@@H]3C[C@]3(C)C4)nc2cc1N(C)C(=O)CN1CCCCCC1=O [Example 34, N-Methyl-N-(6-methyl-2-((4aS,5aR)-5a-methyl-1,4,4a,5,5a,6-hexahydrocyclopropa[f]indazol-3-yl)-1H-benzo[d]imidazol-5-yl)-2-(2-oxoazepan-1-yl)acetamide] | 43 nM | 4 nM
6 | Cc1cc2[nH]c(-c3n[nH]c4c3C[C@@H]3C[C@]3(C)C4)nc2cc1N(C)C(=O)C1CCC1 [Example 36, N-Methyl-N-(6-methyl-2-((4aS,5aR)-5a-methyl-1,4,4a,5,5a,6-hexahydrocyclopropa[f]indazol-3-yl)-1H-benzo[d]imidazol-5-yl)cyclobutanecarboxamide] | 57 nM | 5 nM
7 | CCC(C(=O)N(C)c1cc2nc(-c3n[nH]c4c3C[C@@H]3C[C@]3(C)C4)[nH]c2cc1C)N1CCCC1=O (stereo partly drawn) [Example 37, N-Methyl-N-(6-methyl-2-((4aS,5aR)-5a-methyl-1,4,4a,5,5a,6-hexahydrocyclopropa[f]indazol-3-yl)-1H-benzo[d]imidazol-5-yl)-2-(2-oxopyrrolidin-1-yl)butanamide] | 506 nM | 61 nM

Continued by falling IC50 [1], values first:

Row | IC50 [1] | IC50 [2] | Compound
8 | 572 nM | 72 nM | Cc1cc2[nH]c(-c3n[nH]c4c3C[C@@H]3C[C@]3(C)C4)nc2cc1N(C)C(=O)[C@H](C)N1CCCC1=O [Example 25, (S)-N-Methyl-N-(6-methyl-2-((4aS,5aR)-5a-methyl-1,4,4a,5,5a,6-hexahydrocyclopropa[f]indazol-3-yl)-1H-benzo[d]imidazol-5-yl)-2-(2-oxopyrrolidin-1-yl)propenamide]
9 | 489 nM | 77 nM | CC[C@@H](C(=O)N(C)c1cc2nc(-c3n[nH]c4c3C[C@@H]3C[C@]3(C)C4)[nH]c2cc1C)N1CCCC1=O [Example 27, (S)-N-Methyl-N-(6-methyl-2-((4aS,5aR)-5a-methyl-1,4,4a,5,5a,6-hexahydrocyclopropa[f]indazol-3-yl)-1H-benzo[d]imidazol-5-yl)-2-(2-oxopyrrolidin-1-yl)butanamide]
10 | 118 nM | 8 nM | Cc1cc2[nH]c(-c3n[nH]c4c3C[C@@H]3C[C@]3(C)C4)nc2cc1N(C)C(=O)C1(F)CC1 [Example 32, 1-Fluoro-N-methyl-N-(6-methyl-2-((4aS,5aR)-5a-methyl-1,4,4a,5,5a,6-hexahydrocyclopropa[f]indazol-3-yl)-1H-benzo[d]imidazol-5-yl)cyclopropane-1-carboxamide]
